Experimental data reported in ChEMBL document CHEMBL1140070, “Synthesis, structural studies and biological properties of new TBA analogues containing an acyclic nucleotide” (2008).

Assays:
[1] = system: Plasma; assay: Anticoagulant potency in citreated human plasma assessed as prolongation of thromboplastin-induced prothrombin time at 20 uM by coagulometer; assay type: functional
[2] = system: Plasma; assay: Anticoagulant potency in citreated human plasma assessed as prolongation of thromboplastin-induced prothrombin time at 2 uM by coagulometer; assay type: functional
[3] = target: Prothrombin (Homo sapiens) (UniProt P00734); assay: Binding affinity to human thrombin assessed as concentration required to double fibrinogen clotting time by coagulometer

| Structure (SMILES) | Activity [1] | Activity [2] | Activity [3] |
| --- | --- | --- | --- |
| Cc1cn(CC(C)(COP(=O)(O)OC[C@H]2O[C@@H](n3cnc4c(=O)[nH]c(N)nc43)[C@H](O)[C@@H]2OP(=O)(O)OC[C@H]2O[C@@H](n3cnc4c(=O)[nH]c(N)nc43)[C@H](O)[C@@H]2OP(=O)(O)OC[C@H]2O[C@@H](n3cc(C)c(=O)[nH]c3=O)C[C@@H]2OP(=O)(O)OC[C@H]2O[C@@H](n3cnc4c(=O)[nH]c(N)nc43)[C@H](O)[C@@H]2OP(=O)(O)OC[C@H]2O[C@@H](n3cc(C)c(=O)[nH]c3=O)C[C@@H]2OP(=O)(O)OC[C@H]2O[C@@H](n3cnc4c(=O)[nH]c(N)nc43)[C@H](O)[C@@H]2OP(=O)(O)OC[C@H]2O[C@@H](n3cnc4c(=O)[nH]c(N)nc43)[C@H](O)[C@@H]2OP(=O)(O)OC[C@H]2O[C@@H](n3cc(C)c(=O)[nH]c3=O)C[C@@H]2OP(=O)(O)OC[C@H]2O[C@@H](n3cc(C)c(=O)[nH]c3=O)C[C@@H]2OP(=O)(O)OC[C@H]2O[C@@H](n3cnc4c(=O)[nH]c(N)nc43)[C@H](O)[C@@H]2OP(=O)(O)OC[C@H]2O[C@@H](n3cnc4c(=O)[nH]c(N)nc43)[C@H](O)[C@@H]2O)COP(=O)(O)O[C@H]2C[C@H](n3cc(C)c(=O)[nH]c3=O)O[C@@H]2COP(=O)(O)O[C@H]2[C@@H](O)[C@H](n3cnc4c(=O)[nH]c(N)nc43)O[C@@H]2COP(=O)(O)O[C@H]2[C@@H](O)[C@H](n3cnc4c(=O)[nH]c(N)nc43)O[C@@H]2CO)c(=O)[nH]c1=O (stereo partly specified) | 32.28 s | 14.5 s | 250 nM |
| Cc1cn([C@H]2C[C@H](OP(=O)(O)OC[C@H]3O[C@@H](n4cnc5c(=O)[nH]c(N)nc54)[C@H](O)[C@@H]3OP(=O)(O)OC[C@H]3O[C@@H](n4cnc5c(=O)[nH]c(N)nc54)[C@H](O)[C@@H]3OP(=O)(O)OC[C@H]3O[C@@H](n4cc(C)c(=O)[nH]c4=O)C[C@@H]3OP(=O)(O)OC[C@H]3O[C@@H](n4cc(C)c(=O)[nH]c4=O)C[C@@H]3OP(=O)(O)OC[C@H]3O[C@@H](n4cnc5c(=O)[nH]c(N)nc54)[C@H](O)[C@@H]3OP(=O)(O)OC[C@H]3O[C@@H](n4cnc5c(=O)[nH]c(N)nc54)[C@H](O)[C@@H]3O)[C@@H](COP(=O)(O)O[C@H]3[C@@H](O)[C@H](n4cnc5c(=O)[nH]c(N)nc54)O[C@@H]3COP(=O)(O)O[C@H]3C[C@H](n4cc(C)c(=O)[nH]c4=O)O[C@@H]3COP(=O)(O)O[C@H]3[C@@H](O)[C@H](n4cnc5c(=O)[nH]c(N)nc54)O[C@@H]3COP(=O)(O)O[C@H]3[C@@H](O)[C@H](n4cnc5c(=O)[nH]c(N)nc54)O[C@@H]3COP(=O)(O)O[C@H]3C[C@H](n4cc(C)c(=O)[nH]c4=O)O[C@@H]3COP(=O)(O)O[C@H]3C[C@H](n4cc(C)c(=O)[nH]c4=O)O[C@@H]3COP(=O)(O)O[C@H]3[C@@H](O)[C@H](n4cnc5c(=O)[nH]c(N)nc54)O[C@@H]3COP(=O)(O)O[C@H]3[C@@H](O)[C@H](n4cnc5c(=O)[nH]c(N)nc54)O[C@@H]3CO)O2)c(=O)[nH]c1=O [THROMBIN APTAMER] | 53.68 s | 22.6 s | 175 nM |
| Cc1cn(CC(C)(COP(=O)(O)OC[C@H]2O[C@@H](n3cnc4c(=O)[nH]c(N)nc43)[C@H](O)[C@@H]2OP(=O)(O)OC[C@H]2O[C@@H](n3cnc4c(=O)[nH]c(N)nc43)[C@H](O)[C@@H]2O)COP(=O)(O)O[C@H]2C[C@H](n3cc(C)c(=O)[nH]c3=O)O[C@@H]2COP(=O)(O)O[C@H]2[C@@H](O)[C@H](n3cnc4c(=O)[nH]c(N)nc43)O[C@@H]2COP(=O)(O)O[C@H]2[C@@H](O)[C@H](n3cnc4c(=O)[nH]c(N)nc43)O[C@@H]2COP(=O)(O)O[C@H]2C[C@H](n3cc(C)c(=O)[nH]c3=O)O[C@@H]2COP(=O)(O)O[C@H]2[C@@H](O)[C@H](n3cnc4c(=O)[nH]c(N)nc43)O[C@@H]2COP(=O)(O)O[C@H]2C[C@H](n3cc(C)c(=O)[nH]c3=O)O[C@@H]2COP(=O)(O)O[C@H]2[C@@H](O)[C@H](n3cnc4c(=O)[nH]c(N)nc43)O[C@@H]2COP(=O)(O)O[C@H]2[C@@H](O)[C@H](n3cnc4c(=O)[nH]c(N)nc43)O[C@@H]2COP(=O)(O)O[C@H]2C[C@H](n3cc(C)c(=O)[nH]c3=O)O[C@@H]2COP(=O)(O)O[C@H]2C[C@H](n3cc(C)c(=O)[nH]c3=O)O[C@@H]2COP(=O)(O)O[C@H]2[C@@H](O)[C@H](n3cnc4c(=O)[nH]c(N)nc43)O[C@@H]2COP(=O)(O)O[C@H]2[C@@H](O)[C@H](n3cnc4c(=O)[nH]c(N)nc43)O[C@@H]2CO)c(=O)[nH]c1=O (stereo partly specified) | 46.97 s | 17.5 s | 100 nM |
| Cc1cn(CC(C)(COP(=O)(O)OC[C@H]2O[C@@H](n3cnc4c(=O)[nH]c(N)nc43)[C@H](O)[C@@H]2OP(=O)(O)OC[C@H]2O[C@@H](n3cc(C)c(=O)[nH]c3=O)C[C@@H]2OP(=O)(O)OC[C@H]2O[C@@H](n3cnc4c(=O)[nH]c(N)nc43)[C@H](O)[C@@H]2OP(=O)(O)OC[C@H]2O[C@@H](n3cnc4c(=O)[nH]c(N)nc43)[C@H](O)[C@@H]2OP(=O)(O)OC[C@H]2O[C@@H](n3cc(C)c(=O)[nH]c3=O)C[C@@H]2OP(=O)(O)OC[C@H]2O[C@@H](n3cc(C)c(=O)[nH]c3=O)C[C@@H]2OP(=O)(O)OC[C@H]2O[C@@H](n3cnc4c(=O)[nH]c(N)nc43)[C@H](O)[C@@H]2OP(=O)(O)OC[C@H]2O[C@@H](n3cnc4c(=O)[nH]c(N)nc43)[C@H](O)[C@@H]2O)COP(=O)(O)O[C@H]2[C@@H](O)[C@H](n3cnc4c(=O)[nH]c(N)nc43)O[C@@H]2COP(=O)(O)O[C@H]2[C@@H](O)[C@H](n3cnc4c(=O)[nH]c(N)nc43)O[C@@H]2COP(=O)(O)O[C@H]2C[C@H](n3cc(C)c(=O)[nH]c3=O)O[C@@H]2COP(=O)(O)O[C@H]2C[C@H](n3cc(C)c(=O)[nH]c3=O)O[C@@H]2COP(=O)(O)O[C@H]2[C@@H](O)[C@H](n3cnc4c(=O)[nH]c(N)nc43)O[C@@H]2COP(=O)(O)O[C@H]2[C@@H](O)[C@H](n3cnc4c(=O)[nH]c(N)nc43)O[C@@H]2CO)c(=O)[nH]c1=O (stereo partly specified) | 60.2 s | 24.67 s | 70 nM |
| Cc1cn(CC(C)(COP(=O)(O)OC[C@H]2O[C@@H](n3cnc4c(=O)[nH]c(N)nc43)[C@H](O)[C@@H]2OP(=O)(O)OC[C@H]2O[C@@H](n3cnc4c(=O)[nH]c(N)nc43)[C@H](O)[C@@H]2OP(=O)(O)OC[C@H]2O[C@@H](n3cc(C)c(=O)[nH]c3=O)C[C@@H]2OP(=O)(O)OC[C@H]2O[C@@H](n3cc(C)c(=O)[nH]c3=O)C[C@@H]2OP(=O)(O)OC[C@H]2O[C@@H](n3cnc4c(=O)[nH]c(N)nc43)[C@H](O)[C@@H]2OP(=O)(O)OC[C@H]2O[C@@H](n3cnc4c(=O)[nH]c(N)nc43)[C@H](O)[C@@H]2O)COP(=O)(O)O[C@H]2[C@@H](O)[C@H](n3cnc4c(=O)[nH]c(N)nc43)O[C@@H]2COP(=O)(O)O[C@H]2C[C@H](n3cc(C)c(=O)[nH]c3=O)O[C@@H]2COP(=O)(O)O[C@H]2[C@@H](O)[C@H](n3cnc4c(=O)[nH]c(N)nc43)O[C@@H]2COP(=O)(O)O[C@H]2[C@@H](O)[C@H](n3cnc4c(=O)[nH]c(N)nc43)O[C@@H]2COP(=O)(O)O[C@H]2C[C@H](n3cc(C)c(=O)[nH]c3=O)O[C@@H]2COP(=O)(O)O[C@H]2C[C@H](n3cc(C)c(=O)[nH]c3=O)O[C@@H]2COP(=O)(O)O[C@H]2[C@@H](O)[C@H](n3cnc4c(=O)[nH]c(N)nc43)O[C@@H]2COP(=O)(O)O[C@H]2[C@@H](O)[C@H](n3cnc4c(=O)[nH]c(N)nc43)O[C@@H]2CO)c(=O)[nH]c1=O (stereo partly specified) | 34.65 s | 13.23 s | 210 nM |
| Cc1cn(CC(C)(COP(=O)(O)OC[C@H]2O[C@@H](n3cc(C)c(=O)[nH]c3=O)C[C@@H]2OP(=O)(O)OC[C@H]2O[C@@H](n3cnc4c(=O)[nH]c(N)nc43)[C@H](O)[C@@H]2OP(=O)(O)OC[C@H]2O[C@@H](n3cnc4c(=O)[nH]c(N)nc43)[C@H](O)[C@@H]2OP(=O)(O)OC[C@H]2O[C@@H](n3cc(C)c(=O)[nH]c3=O)C[C@@H]2OP(=O)(O)OC[C@H]2O[C@@H](n3cnc4c(=O)[nH]c(N)nc43)[C@H](O)[C@@H]2OP(=O)(O)OC[C@H]2O[C@@H](n3cc(C)c(=O)[nH]c3=O)C[C@@H]2OP(=O)(O)OC[C@H]2O[C@@H](n3cnc4c(=O)[nH]c(N)nc43)[C@H](O)[C@@H]2OP(=O)(O)OC[C@H]2O[C@@H](n3cnc4c(=O)[nH]c(N)nc43)[C@H](O)[C@@H]2OP(=O)(O)OC[C@H]2O[C@@H](n3cc(C)c(=O)[nH]c3=O)C[C@@H]2OP(=O)(O)OC[C@H]2O[C@@H](n3cc(C)c(=O)[nH]c3=O)C[C@@H]2OP(=O)(O)OC[C@H]2O[C@@H](n3cnc4c(=O)[nH]c(N)nc43)[C@H](O)[C@@H]2OP(=O)(O)OC[C@H]2O[C@@H](n3cnc4c(=O)[nH]c(N)nc43)[C@H](O)[C@@H]2O)COP(=O)(O)O[C@H]2[C@@H](O)[C@H](n3cnc4c(=O)[nH]c(N)nc43)O[C@@H]2COP(=O)(O)O[C@H]2[C@@H](O)[C@H](n3cnc4c(=O)[nH]c(N)nc43)O[C@@H]2CO)c(=O)[nH]c1=O (stereo partly specified) | 35.15 s | 14.3 s | 238 nM |
| Cc1cn(CC(C)(COP(=O)(O)OC[C@H]2O[C@@H](n3cc(C)c(=O)[nH]c3=O)C[C@@H]2OP(=O)(O)OC[C@H]2O[C@@H](n3cnc4c(=O)[nH]c(N)nc43)[C@H](O)[C@@H]2OP(=O)(O)OC[C@H]2O[C@@H](n3cnc4c(=O)[nH]c(N)nc43)[C@H](O)[C@@H]2O)COP(=O)(O)O[C@H]2[C@@H](O)[C@H](n3cnc4c(=O)[nH]c(N)nc43)O[C@@H]2COP(=O)(O)O[C@H]2[C@@H](O)[C@H](n3cnc4c(=O)[nH]c(N)nc43)O[C@@H]2COP(=O)(O)O[C@H]2C[C@H](n3cc(C)c(=O)[nH]c3=O)O[C@@H]2COP(=O)(O)O[C@H]2[C@@H](O)[C@H](n3cnc4c(=O)[nH]c(N)nc43)O[C@@H]2COP(=O)(O)O[C@H]2C[C@H](n3cc(C)c(=O)[nH]c3=O)O[C@@H]2COP(=O)(O)O[C@H]2[C@@H](O)[C@H](n3cnc4c(=O)[nH]c(N)nc43)O[C@@H]2COP(=O)(O)O[C@H]2[C@@H](O)[C@H](n3cnc4c(=O)[nH]c(N)nc43)O[C@@H]2COP(=O)(O)O[C@H]2C[C@H](n3cc(C)c(=O)[nH]c3=O)O[C@@H]2COP(=O)(O)O[C@H]2C[C@H](n3cc(C)c(=O)[nH]c3=O)O[C@@H]2COP(=O)(O)O[C@H]2[C@@H](O)[C@H](n3cnc4c(=O)[nH]c(N)nc43)O[C@@H]2COP(=O)(O)O[C@H]2[C@@H](O)[C@H](n3cnc4c(=O)[nH]c(N)nc43)O[C@@H]2CO)c(=O)[nH]c1=O (stereo partly specified) | 44.83 s | 18.07 s | 78 nM |
